In publication PMC10652874, “Investigation into the mechanism of action of the antimicrobial peptide epilancin 15X” (Frontiers in Microbiology, 2023):

Tested on: B. subtilis BSF2470 (1A980)
Experiment: Killing kinetics (CFU counting)
Type: cell-based, Bacillus subtilis
Description: S. carnosus TM300 and B. subtilis BSF2470 (1A980) cell cultures were grown to mid-log phase in BHI and LB broth, respectively. […] At each time point, an aliquot of […] treated-culture was serial-diluted and placed on BHI agar plates for S. carnosus and LB agar plates for B. subtilis. The plates were grown for 1 day at 37°C and the colonies were counted. Each experiment was performed in triplicate and untreated cell culture was used as the negative control.

Epilancin 15X
growth (colonies) after treatment (B. subtilis BSF2470, 4x MIC, 90 and 120 minutes, at the dilution factor plated): no growth was observed | number of colony forming units (CFU) (B. subtilis BSF2470, mid-log, 1x and 4x MIC, 30-180 min, triplicate): significant decrease
